Data reported in ChEMBL document CHEMBL5154943, “Crystallography-Guided Optimizations of the Keap1-Nrf2 Inhibitors on the Solvent Exposed Region: From Symmetric to Asymmetric Naphthalenesulfonamides” (J Med Chem, 2022).
Values after ≈ are worked out from the molar mass of the structure shown. Active and inactive are the calls of the source. The calls are words filed in the database; no cut-off is given here.

What was measured:
[1] = Aqueous solubility of the compound in PBS at pH 2 after 24 hrs by HPLC-UV analysis; type: physicochemical
[2] = Aqueous solubility of the compound in PBS at pH 7 after 24 hrs by HPLC-UV analysis; type: physicochemical
[3] = Aqueous solubility of the compound in PBS at pH 7.4 after 24 hrs by HPLC-UV analysis; type: physicochemical
Keap1/Nrf2 = Keap1/Nrf2 (Homo sapiens, UniProt Q14145); test: Inhibition of recombinant N-terminal His6-tagged human Keap1-Nrf2 (322 to 609 residues) (unknown origin) protein-protein interaction expressed in Escherichia coli (DE3) incubated for 60 mins by fluorescence anisotropy assay
Keap1/Nrf2, sequence (Q16236 whole entry, the tested form may be a part): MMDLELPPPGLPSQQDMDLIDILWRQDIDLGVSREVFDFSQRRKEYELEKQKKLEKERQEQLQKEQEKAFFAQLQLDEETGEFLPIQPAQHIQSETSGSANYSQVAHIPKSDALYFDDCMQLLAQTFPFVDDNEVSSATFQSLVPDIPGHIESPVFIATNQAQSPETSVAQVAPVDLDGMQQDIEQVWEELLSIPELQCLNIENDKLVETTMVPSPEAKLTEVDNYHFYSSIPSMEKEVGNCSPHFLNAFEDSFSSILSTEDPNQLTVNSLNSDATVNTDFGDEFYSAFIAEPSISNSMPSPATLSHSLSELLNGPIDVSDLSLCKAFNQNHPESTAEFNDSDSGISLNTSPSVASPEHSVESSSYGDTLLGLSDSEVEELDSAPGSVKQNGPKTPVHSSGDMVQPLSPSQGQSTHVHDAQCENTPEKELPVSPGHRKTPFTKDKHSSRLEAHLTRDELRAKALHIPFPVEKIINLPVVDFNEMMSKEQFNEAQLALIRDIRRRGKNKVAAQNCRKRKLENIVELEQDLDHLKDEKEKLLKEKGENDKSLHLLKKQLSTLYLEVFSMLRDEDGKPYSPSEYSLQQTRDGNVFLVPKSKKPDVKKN
Keap1/Nrf2, sequence (Q14145 whole entry, the tested form may be a part): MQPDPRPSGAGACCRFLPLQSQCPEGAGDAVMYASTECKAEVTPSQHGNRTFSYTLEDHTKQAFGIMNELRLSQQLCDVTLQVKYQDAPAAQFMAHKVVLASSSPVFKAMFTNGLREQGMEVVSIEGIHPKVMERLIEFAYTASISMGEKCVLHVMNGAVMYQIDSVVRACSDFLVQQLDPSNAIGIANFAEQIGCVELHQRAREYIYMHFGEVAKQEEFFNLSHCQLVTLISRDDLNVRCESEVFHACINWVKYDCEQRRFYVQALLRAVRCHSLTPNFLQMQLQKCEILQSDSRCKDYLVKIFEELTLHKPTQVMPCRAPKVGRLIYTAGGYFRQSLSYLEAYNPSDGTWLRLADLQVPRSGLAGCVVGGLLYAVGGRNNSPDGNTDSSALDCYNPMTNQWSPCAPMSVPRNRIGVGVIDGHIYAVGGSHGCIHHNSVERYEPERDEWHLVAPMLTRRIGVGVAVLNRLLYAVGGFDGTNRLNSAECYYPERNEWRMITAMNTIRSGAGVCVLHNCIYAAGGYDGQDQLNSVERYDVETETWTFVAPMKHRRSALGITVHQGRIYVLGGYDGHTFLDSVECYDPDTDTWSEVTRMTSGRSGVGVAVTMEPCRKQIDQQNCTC

Peritoneal macrophage [4] = test: Cytotoxicity against mouse peritoneal macrophages assessed as reduction in cell viability measured after 24 hrs by Cell Titer-Blue assay; type: functional
Peritoneal macrophage [5] = test: Antiinflammatory activity against LPS-induced mouse peritoneal macrophage assessed as suppression of ROS level at 10 uM pretreated with LPS followed by compound addition and measured after 6 hrs by DCFH-DA staining based fluorescence analysis; type: functional, cell-based
Mus musculus [6] = test: Antiinflammatory activity against ip dosed LPS-induced ALI C57BL/6J mouse model assessed as reduction in TNF-alpha level in BALF administered 0.5 hr prior to LPS stimulation by ELISA method; type: functional, organism-based; conditions: dose 5-20 mg/kg, DDE = dose-dependent effect
Mus musculus [7] = test: Antiinflammatory activity against ip dosed LPS-induced ALI C57BL/6J mouse model assessed as reduction in […] level in BALF administered 0.5 hr prior to LPS stimulation by ELISA method; type: functional, organism-based; conditions: dose 5-20 mg/kg, DDE = dose-dependent effect
Mus musculus [8] = test: Antiinflammatory activity against ip dosed LPS-induced ALI C57BL/6J mouse model assessed as reduction in IL-6 level in BALF administered 0.5 hr prior to LPS stimulation by ELISA method; type: functional, organism-based; conditions: dose 5-20 mg/kg, DDE = dose-dependent effect
Mus musculus [9] = test: Antiinflammatory activity against ip dosed LPS-induced ALI C57BL/6J mouse model assessed as reduction in TNF-alpha mRNA expression in BALF administered 0.5 hr prior to LPS stimulation by RT-qPCR method; type: functional, organism-based; conditions: dose 5-20 mg/kg, DDE = dose-dependent effect
Mus musculus [10] = test: Antiinflammatory activity against ip dosed LPS-induced ALI C57BL/6J mouse model assessed as reduction in IL-1beta mRNA expression in BALF administered 0.5 hr prior to LPS stimulation by RT-qPCR method; type: functional, organism-based; conditions: dose 5-20 mg/kg, DDE = dose-dependent effect
Mus musculus [11] = test: Antiinflammatory activity against ip dosed LPS-induced ALI C57BL/6J mouse model assessed as reduction in IL-6 mRNA expression in BALF administered 0.5 hr prior to LPS stimulation by RT-qPCR method; type: functional, organism-based; conditions: dose 5-20 mg/kg, DDE = dose-dependent effect
Mus musculus [12] = test: In vivo inhibition of Keap1-Nrf2 interaction in LPS-induced acute lung injury C57BL/6J mouse model assessed as increase in Nrf2 nuclear translocation in lungs by measuring decrease in cytosolic Nrf2 level treated intraperitoneally at 0.5 hrs before LPS stimulation by Western blot analysis; type: functional, organism-based; conditions: dose 5-20 mg/kg, route ip, DDE = dose-dependent effect
Peritoneal macrophage [13] = test: Antiinflammatory activity against LPS-induced mouse peritoneal macrophage assessed as suppression of NO level at 10 uM pretreated with LPS followed by compound addition and measured after 24 hrs by Griess reagent based assay; type: functional, cell-based
Peritoneal macrophage [14] = test: Antiinflammatory activity against LPS-induced mouse peritoneal macrophage assessed as inhibition of TNF alpha level at 10 uM after 4 hrs by ELISA method; type: functional, cell-based
Mus musculus [15] = test: In vivo inhibition of Keap1-Nrf2 interaction in LPS-induced acute lung injury C57BL/6J mouse model assessed as increase in Nrf2 nuclear translocation in lungs by measuring increase in nuclear Nrf2 level treated intraperitoneally at 0.5 hrs before LPS stimulation by Western blot analysis; type: functional, organism-based; conditions: dose 5-20 mg/kg, route ip, DDE = dose-dependent effect

Row | solubility at 24 h [1] [µg/mL] | solubility at 24 h [2] [µg/mL] | solubility at 24 h [3] [µg/mL] | Kd (Keap1/Nrf2) [µM] | Compound | CC50 (Peritoneal macrophage [4]) [µM] | other results
1 | 1030 | 129 | 72.5 | – | CCN1CCN(CCC(=O)Nc2ccc(S(=O)(=O)N(CC(N)=O)c3ccc(N(CC(N)=O)S(=O)(=O)c4ccc(OC)cc4)c4ccccc34)cc2)CC1.O=C(O)CC(O)(CC(=O)O)C(=O)O | – | –
2 | – | – | – | 1.45 | COc1ccc(S(=O)(=O)N(CC(N)=O)c2ccc(N(CC(N)=O)S(=O)(=O)c3ccc(NC(=O)CN4CCN(C(C)C)CC4)cc3)c3ccccc23)cc1 | > 100 | –
3 | – | – | – | 0.48 | CCN1CCN(CC(=O)Nc2ccc(S(=O)(=O)N(CC(N)=O)c3ccc(N(CC(N)=O)S(=O)(=O)c4ccc(OC)cc4)c4ccccc34)cc2)CC1 | > 100 | –
4 | 1260 | 135 | 105 | – | CCN1CCN(CCC(=O)Nc2ccc(S(=O)(=O)N(CC(N)=O)c3ccc(N(CC(N)=O)S(=O)(=O)c4ccc(OC)cc4)c4ccccc34)cc2)CC1.O=C(O)C(F)(F)F | – | –
5 | – | – | – | 6.64 | COc1ccc(S(=O)(=O)N(CC(N)=O)c2ccc(N(CC(N)=O)S(=O)(=O)c3ccc(NC(=O)CN4CCCCC4)cc3)c3ccccc23)cc1 | > 100 | –
6 | – | – | – | 1.48 | COc1ccc(S(=O)(=O)N(CC(N)=O)c2ccc(N(CC(N)=O)S(=O)(=O)c3ccc(NC(=O)CCCN4CCN(C(C)C)CC4)cc3)c3ccccc23)cc1 | > 100 | –
7 | 532 | 58.6 | 40.7 | – | Br.Br.COc1ccc(S(=O)(=O)N(CC(N)=O)c2ccc(N(CC(N)=O)S(=O)(=O)c3ccc(N)cc3)c3ccccc23)cc1 | – | –
8 | 1080 | 130 | 76.9 | – | CCN1CCN(CCC(=O)Nc2ccc(S(=O)(=O)N(CC(N)=O)c3ccc(N(CC(N)=O)S(=O)(=O)c4ccc(OC)cc4)c4ccccc34)cc2)CC1.O=C(O)CCC(=O)O | – | –
9 | – | – | – | 8.94 | COc1ccc(S(=O)(=O)N(CC(N)=O)c2ccc(N(CC(N)=O)S(=O)(=O)c3ccc(NC(=O)CN4CCSCC4)cc3)c3ccccc23)cc1 | > 100 | –
10 | – | – | – | – | CCN1CCN(CCC(=O)Nc2ccc(S(=O)(=O)N(CC(N)=O)c3ccc(N(CC(N)=O)S(=O)(=O)c4ccc(OC)cc4)c4ccccc34)cc2)CC1 | – | Activity (Peritoneal macrophage [5]): Active; Activity (Mus musculus [6]): Dde; Activity (Mus musculus [7]): Dde; Activity (Mus musculus [8]): Dde; Activity (Mus musculus [9]): Dde; Activity (Mus musculus [10]): Dde; Activity (Mus musculus [11]): Dde; Activity (Mus musculus [12]): Dde; Activity (Peritoneal macrophage [13]): Active; Activity (Peritoneal macrophage [14]): Active; Activity (Mus musculus [15]): Dde
11 | 1460 | 170 | 130 | – | Br.CCN1CCN(CCC(=O)Nc2ccc(S(=O)(=O)N(CC(N)=O)c3ccc(N(CC(N)=O)S(=O)(=O)c4ccc(OC)cc4)c4ccccc34)cc2)CC1 | – | –
12 | – | – | – | 1.42 | COc1ccc(S(=O)(=O)N(CC(N)=O)c2ccc(N(CC(N)=O)S(=O)(=O)c3ccc(NC(=O)CCN4CCCCC4)cc3)c3ccccc23)cc1 | > 100 | –
13 | – | – | – | 1.08 | COc1ccc(S(=O)(=O)N(CC(N)=O)c2ccc(N(CC(N)=O)S(=O)(=O)c3ccc(NC(=O)CCCN4CCOCC4)cc3)c3ccccc23)cc1 | > 100 | –
14 | – | – | – | 0.71 | COc1ccc(S(=O)(=O)N(CC(N)=O)c2ccc(N(CC(N)=O)S(=O)(=O)c3ccc(NC(=O)CCN4CCN(C(C)C)CC4)cc3)c3ccccc23)cc1 | > 100 | –
15 | 47.5 (≈ 79.5 µM) | 55.4 (≈ 92.7 µM) | 33.6 (≈ 56.2 µM) | – | COc1ccc(S(=O)(=O)N(CC(N)=O)c2ccc(N(CC(N)=O)S(=O)(=O)c3ccc(N)cc3)c3ccccc23)cc1 | – | –
16 | – | – | – | 6.11 | COc1ccc(S(=O)(=O)N(CC(N)=O)c2ccc(N(CC(N)=O)S(=O)(=O)c3ccc(NC(=O)CN4CCC(C)CC4)cc3)c3ccccc23)cc1 | > 50 | –
17 | – | – | – | > 10 | CCCC(=O)Nc1ccc(S(=O)(=O)N(CC(N)=O)c2ccc(N(CC(N)=O)S(=O)(=O)c3ccc(OC)cc3)c3ccccc23)cc1 | > 100 | –
18 | – | – | – | 1.76 | COc1ccc(S(=O)(=O)N(CC(N)=O)c2ccc(N(CC(N)=O)S(=O)(=O)c3ccc(NC(C)=O)cc3)c3ccccc23)cc1 | > 50 | Activity (Peritoneal macrophage [5]): Active; Activity (Peritoneal macrophage [13]): Active; Activity (Peritoneal macrophage [14]): Active
19 | 1050 | 122 | 80.5 | – | CCN1CCN(CCC(=O)Nc2ccc(S(=O)(=O)N(CC(N)=O)c3ccc(N(CC(N)=O)S(=O)(=O)c4ccc(OC)cc4)c4ccccc34)cc2)CC1.O=C(O)/C=C\C(=O)O | – | –
20 | – | – | – | 2.91 | COc1ccc(S(=O)(=O)N(CC(N)=O)c2ccc(N(CC(N)=O)S(=O)(=O)c3ccc(NC(=O)CCN4CCSCC4)cc3)c3ccccc23)cc1 | > 50 | –
21 | – | – | – | 2.92 | COc1ccc(S(=O)(=O)N(CC(N)=O)c2ccc(N(CC(N)=O)S(=O)(=O)c3ccc(NC(=O)CCCN4CCSCC4)cc3)c3ccccc23)cc1 | > 100 | –
22 | – | – | – | 1.35 | COc1ccc(S(=O)(=O)N(CC(N)=O)c2ccc(N(CC(N)=O)S(=O)(=O)c3ccc(NC(=O)CN4CCOCC4)cc3)c3ccccc23)cc1 | > 100 | –
23 | – | – | – | 2.08 | COc1ccc(S(=O)(=O)N(CC(N)=O)c2ccc(N(CC(N)=O)S(=O)(=O)c3ccc(NC(=O)CCN4CCC(C)CC4)cc3)c3ccccc23)cc1 | > 100 | –
24 | – | – | – | 0.58 | CCN1CCN(CCCC(=O)Nc2ccc(S(=O)(=O)N(CC(N)=O)c3ccc(N(CC(N)=O)S(=O)(=O)c4ccc(OC)cc4)c4ccccc34)cc2)CC1 | > 100 | –
25 | 926 | 120 | 77.9 | – | CC(=O)O.CCN1CCN(CCC(=O)Nc2ccc(S(=O)(=O)N(CC(N)=O)c3ccc(N(CC(N)=O)S(=O)(=O)c4ccc(OC)cc4)c4ccccc34)cc2)CC1 | – | –
26 | – | – | – | 1.03 | COc1ccc(S(=O)(=O)N(CC(N)=O)c2ccc(N(CC(N)=O)S(=O)(=O)c3ccc(NC(=O)CCN4CCOCC4)cc3)c3ccccc23)cc1 | > 100 | Activity (Peritoneal macrophage [5]): Active; Activity (Peritoneal macrophage [13]): Active; Activity (Peritoneal macrophage [14]): Active
27 | 1570 | 151 | 47.7 | – | CCN1CCN(CCC(=O)Nc2ccc(S(=O)(=O)N(CC(N)=O)c3ccc(N(CC(N)=O)S(=O)(=O)c4ccc(OC)cc4)c4ccccc34)cc2)CC1.Cl | – | –
28 | – | – | – | > 10 | CCCCC(=O)Nc1ccc(S(=O)(=O)N(CC(N)=O)c2ccc(N(CC(N)=O)S(=O)(=O)c3ccc(OC)cc3)c3ccccc23)cc1 | > 100 | –
29 | – | – | – | 2.81 | CCC(=O)Nc1ccc(S(=O)(=O)N(CC(N)=O)c2ccc(N(CC(N)=O)S(=O)(=O)c3ccc(OC)cc3)c3ccccc23)cc1 | > 50 | –
